Data published in US20060148730A1, “Method of treating tuberculosis” (priority 2003, published 2006).
Values after ≈ are worked out from the molar mass of the structure shown. “Also recorded” adds a separate entry of the source. Like-named read-outs stand apart in the source and are kept apart here.

Columns and labels:
[1] = system: J774.1 macrophage cell line; assay: Cytotoxicity against J774.1 macrophage cell line; type: cell-based, murine; details: Mus musculus
M. tuberculosis Erdman = type: in vivo, BALB/c mice
VERO cells [2] = assay: Cytotoxicity against VERO cells (MTS, 72 hours); details: for IC50: Chlorocebus sabaeus, Vero; for in vitro toxicity / cytotoxicity in words: result in words
M. tuberculosis H37Rv [3] = assay: MIC vs. M. tuberculosis H37Rv, microplate Alamar Blue assay (MABA); type: cell-based; details: for enhancement in potency of macrolide over counterpart ketolide: MIC ratio ketolide/macrolide; for anti-TB activity / MIC in words: result in words
[4] = Overt toxicity in mice, escalating 5-day dosing cycles; type: in vivo, Balb/C mice; details: once daily, 5-day cycles, sequentially 200, 300, 400, 500 mg/kg
Method: Prior to assessing in vivo efficacy, RU66252 and RU69874 were administered to pairs of female Balb/C mice once daily for 5-day cycles, and observed for overt signs of toxicity (e.g., weight loss, ruffled fur, and huddling), after which the mice were rested for 1 or 2 days. Then the dosage was increased for another 5-day cycle. Overall, the same mice received sequentially for 5 days: 200, 300, 400, and 500 mg/kg.

M. tuberculosis H37Rv [5] = details: cited from earlier work
VERO cells [6] = system: VERO cells
M. tuberculosis = details: literature (Luna-Herrera 1995; Truffot-Pernot 1995); cited from earlier work
[7] = Mycobacterium tuberculosis, H37RV, Table 1a, 11,12-carbamate derivatives, anti-TB activity, read-out: MIC
[8] = Table 3, parallel-synthesis carbazate library products, SPE purified, read-out: MIC
[9] = Table 2a, 11,12-diols, anti-TB activity, read-out: MIC

For `CC[C@H]1OC(=O)[C@H](C)C(OC2CC(C)(OC)[C@@H](O)[C@H](C)O2)[C@H](C)[C@@H](O[C@@H]2O[C@H](C)C[C@H](N(C)C)[C@H]2O)[C@](C)(OC)C[C@@H](C)C(=O)[C@H](C)[C@H]2N(NCCCc3ccnc4ccccc34)C(=O)O[C@]12C` (some centres unmarked) [RU66252], the IC50 ([1]; J774.1, Table 1a, toxicity, read-out: J774 IC50) was 16.1 µM, the “activity against M. tuberculosis in the acute phase of infection” value (M. tuberculosis Erdman; […], 100 and 200 mg/kg qd, untreated controls abnormally low) was “dose-dependent activity” and the “colonies on 10-2 dilution plates of lung homogenates” value (M. tuberculosis Erdman; treated mouse lung homogenates) was “no colonies”. For the same molecule, the IC50 (VERO cells [2]; read-out: Vero IC50) was 24.9 µM, the IC50 (VERO cells [2]; read-out: toxicity based on VERO cells) was 25 µM and the “in vitro toxicity / cytotoxicity in words” value (VERO cells [2]) was “comparable to clarithromycin”. For the same molecule, the “enhancement in potency of macrolide over counterpart ketolide” value (M. tuberculosis H37Rv [3]) was 16 fold, the MIC (M. tuberculosis H37Rv [3]; [7]) was 0.25 µM (≈ 0.239 µg/mL) and the MIC (M. tuberculosis H37Rv [3]; Mycobacterium tuberculosis, H37RV, Table 3, parallel-synthesis carbazate library products, SPE purified, read-out: MIC) was 9 µM (≈ 8.61 µg/mL). For the same molecule, the MIC (M. tuberculosis H37Rv [3]; Mycobacterium tuberculosis, H37RV, follow-up assays, read-out: MIC vs. M. tuberculosis in follow-up assays) was about 9 µM (≈ 8.61 µg/mL), the MIC (M. tuberculosis H37Rv [3]; Mycobacterium tuberculosis, H37RV, read-out: minimum inhibitory concentration (MIC) against M. tuberculosis) was 0.25 µM (≈ 0.239 µg/mL) and the “anti-TB activity / MIC in words” value (M. tuberculosis H37Rv [3]) was “very low”. The “signs of overt toxicity (weight loss, ruffled fur, huddling)” value [4] was “No signs of overt toxicity”.

With `CC[C@H]1OC(=O)[C@H](C)C(=O)[C@H](C)[C@@H](O[C@@H]2O[C@H](C)C[C@H](N(C)C)[C@H]2O)[C@](C)(OC)C[C@@H](C)C(=O)[C@H](C)[C@H]2N(CCCCn3cnc(-c4cccnc4)c3)C(=O)O[C@]12C` [Telithromycin, reference compound] the IC50 ([1]; J774.1, read-out: J774 IC50) was 102 µM, the IC50 ([1]; J774.1, read-out: toxicity based on J774 cells) was 102 µM and the MIC (M. tuberculosis H37Rv [3]; [7]) was 48 µM (≈ 39 µg/mL). The “anti-TB activity / MIC in words” value (M. tuberculosis H37Rv [3]) was “less active than clarithromycin”.

For `CC[C@H]1OC(=O)[C@H](C)[C@@H](O[C@H]2C[C@@](C)(OC)[C@@H](O)[C@H](C)O2)[C@H](C)[C@@H](O[C@@H]2O[C@H](C)C[C@H](N(C)C)[C@H]2O)[C@](C)(OC)C[C@@H](C)C(=O)[C@H](C)[C@H]2N(CCCCn3cnc(-c4cccnc4)c3)C(=O)O[C@]12C` [RU69874], the “in vitro toxicity / cytotoxicity in words” value (VERO cells [2]) was “comparable to clarithromycin”, the “anti-TB activity / MIC in words” value (M. tuberculosis H37Rv [3]) was “very low” and the “signs of overt toxicity (weight loss, ruffled fur, huddling)” value [4] was “No signs of overt toxicity”.

For `NNC(=O)c1ccncc1` [Isoniazid], the “expected MIC range of positive quality control compound” value (M. tuberculosis H37Rv [5]) is given as 0.025 to 0.1 µg/mL.

In the case of `CC[C@H]1OC(=O)[C@@](C)(F)C(=O)[C@H](C)[C@@H](O[C@@H]2O[C@H](C)C[C@H](N(C)C)[C@H]2O)[C@](C)(OCC#Cc2cc(-c3cnc4ccccc4c3)no2)C[C@@H](C)C(=O)[C@H](C)[C@H]2NC(=O)O[C@@]21C` [Compound A323348], the “in vitro toxicity / cytotoxicity in words” value (VERO cells [2]) is reported as “comparable to clarithromycin”, the MIC (M. tuberculosis H37Rv [3]; Table 1a, 11,12-carbamate derivatives, anti-TB activity, read-out: MIC) is reported as 0.38 µM (≈ 0.323 µg/mL) and the MIC (M. tuberculosis H37Rv [3]; read-out: minimum inhibitory concentration (MIC) against M. tuberculosis) is reported as 0.38 µM (≈ 0.323 µg/mL). The “anti-TB activity / MIC in words” value (M. tuberculosis H37Rv [3]) was “very low”.

For `CCCCCCCCCCN1CCCC(O/N=C2\[C@H](C)C[C@@](C)(OC)[C@H](O[C@@H]3O[C@H](C)C[C@H](N(C)C)[C@H]3O)[C@@H](C)C(=O)[C@@H](C)C(=O)O[C@H](CC)[C@@](C)(O)[C@H](O)[C@H]2C)C1` (some centres unmarked) [RU60887], the “selectivity index (SI), VERO cells” value (VERO cells [2]) was 221, the “anti-TB activity / MIC in words” value (M. tuberculosis H37Rv [3]) was “most potent of the tested 9-oxime compounds; also recorded: very low” and the “in vitro toxicity / cytotoxicity in words” value (VERO cells [6]) was “comparable to clarithromycin”.

For `CCC1OC(=O)C(C)C(OC2CC(C)(OC)C(O)C(C)O2)C(C)C(OC2OC(C)CC(N(C)C)C2O)C(C)(O)CC(C)C(=NN=Cc2cccc(C(F)(F)F)c2)C(C)C(O)C1(C)O` (centres unmarked) [Compound 1OK119], the MIC (M. tuberculosis H37Rv [3]; Table 5, read-out: MIC) was 16 µM (≈ 14.5 µg/mL).

`CCC1OC(=O)C(C)C(OC2CC(C)(OC)C(O)C(C)O2)C(C)C(OC2OC(C)CC(N(C)C)C2O)C(C)(O)CC(C)C(=NN=Cc2ccc(SC)cc2)C(C)C(O)C1(C)O` (centres unmarked) [Compound 1OK121] gave an MIC (M. tuberculosis H37Rv [3]; Table 5, read-out: MIC) of 12 µM (≈ 10.6 µg/mL).

In the case of `CCC1OC(=O)C(C)C(OC2CC(C)(OC)C(O)C(C)O2)C(C)C(OC2OC(C)CC(N(C)C)C2OC(=S)Nc2ccccc2)C(C)(OC)CC(C)C(=O)C(C)C(O)C1(C)O` (centres unmarked) [Compound 3ZZ61b], the MIC (M. tuberculosis H37Rv [3]; Table 5, read-out: MIC) is reported as 7.3 µM (≈ 6.45 µg/mL).

Work on `CC[C@H]1OC(=O)[C@H](C)[C@@H](O[C@H]2CC(C)(OC)[C@@H](O)[C@H](C)O2)[C@H](C)[C@@H](O[C@@H]2O[C@H](C)C[C@H](N(C)C)[C@H]2O)[C@](C)(OC)C[C@@H](C)C(=O)[C@H](C)[C@H]2N(NCC3CSN=N3)C(=O)O[C@]12C` (some centres unmarked) [G10′] yielded an MIC (M. tuberculosis H37Rv [3]; [8]) of over 16 µM.

With `CC[C@H]1OC(=O)[C@H](C)[C@@H](O[C@H]2CC(C)(OC)[C@@H](O)[C@H](C)O2)[C@H](C)[C@@H](O[C@@H]2O[C@H](C)C[C@H](N(C)C)[C@H]2O)[C@](C)(OC)C[C@@H](C)C(=O)[C@H](C)[C@H]2N(CC/C=C\c3ccccc3)C(=O)O[C@]12C` (some centres unmarked) [ITR0020] the MIC (M. tuberculosis H37Rv [3]; Mycobacterium tuberculosis, H37RV, Table 4, read-out: MIC) was 6.6 µM (≈ 5.96 µg/mL).

Work on `CC[C@H]1OC(=O)[C@H](C)[C@@H](O[C@H]2CC(C)(OC)[C@@H](O)[C@H](C)O2)[C@H](C)[C@@H](O[C@@H]2O[C@H](C)C[C@H](N(C)C)[C@H]2O)[C@](C)(OC)C[C@@H](C)C(=O)[C@H](C)[C@H]2N(NCc3ccoc3)C(=O)O[C@]12C` (some centres unmarked) [A10′] yielded an MIC (M. tuberculosis H37Rv [3]; [8]) of over 7 µM.

With `CCOC(=O)c1cc(-c2ccc(Cl)cc2)oc1CNN1C(=O)O[C@]2(C)[C@@H](CC)OC(=O)[C@H](C)[C@@H](O[C@H]3CC(C)(OC)[C@@H](O)[C@H](C)O3)[C@H](C)[C@@H](O[C@@H]3O[C@H](C)C[C@H](N(C)C)[C@H]3O)[C@](C)(OC)C[C@@H](C)C(=O)[C@H](C)[C@@H]12` (some centres unmarked) [B1′] the MIC (M. tuberculosis H37Rv [3]; [8]) was over 18 µM.

With `CC[C@H]1OC(=O)[C@H](C)[C@@H](O[C@H]2CC(C)(OC)[C@@H](O)[C@H](C)O2)[C@H](C)[C@@H](O[C@@H]2O[C@H](C)C[C@H](N(C)C)[C@H]2O)[C@](C)(OC)C[C@@H](C)C(=O)[C@H](C)[C@H]2N(NCCCc3ccccc3)C(=O)O[C@]12C` (some centres unmarked) [A2′] the MIC (M. tuberculosis H37Rv [3]; [8]) was 10 µM (≈ 9.06 µg/mL).

In the case of `CC[C@H]1OC(=O)[C@H](C)[C@@H](O[C@H]2CC(C)(OC)[C@@H](O)[C@H](C)O2)[C@H](C)[C@@H](O[C@@H]2O[C@H](C)C[C@H](N(C)C)[C@H]2O)[C@](C)(OC)C[C@@H](C)C(=O)[C@H](C)[C@H]2N(NCc3cnn(-c4ccc(F)cc4)c3C)C(=O)O[C@]12C` (some centres unmarked) [D7′], the MIC (M. tuberculosis H37Rv [3]; [8]) is reported as 13 µM (≈ 12.7 µg/mL).

With `CC[C@H]1OC(=O)[C@H](C)[C@@H](O[C@H]2CC(C)(OC)[C@@H](O)[C@H](C)O2)[C@H](C)[C@@H](O[C@@H]2O[C@H](C)C[C@H](N(C)C)[C@H]2O)[C@](C)(OC)C[C@@H](C)C(=O)[C@H](C)[C@H]2N(NCc3cccc4nsnc34)C(=O)O[C@]12C` (some centres unmarked) [H3′] the MIC (M. tuberculosis H37Rv [3]; [8]) was over 22 µM.

In the case of `CC[C@H]1OC(=O)[C@H](C)C(=O)[C@H](C)[C@@H](O[C@@H]2O[C@H](C)C[C@H](N(C)C)[C@H]2O)[C@](C)(OC)C[C@@H](C)C(=NOCOCCOC)[C@H](C)[C@@H](O)[C@]1(C)O` [RU54615], the MIC (M. tuberculosis H37Rv [3]; [9]) is reported as over 128 µM.

For `CC[C@H]1OC(=O)[C@H](C)[C@@H](O[C@H]2C[C@@](C)(OC)[C@@H](O)[C@H](C)O2)[C@H](C)[C@@H](O[C@@H]2O[C@H](C)C[C@H](N(C)C)[C@H]2O)[C@](C)(OC)C[C@@H](C)C(=O)[C@H](C)[C@@H](O)[C@]1(C)O` [Clarithromycin, reference compound], the “enhancement in potency of macrolide over counterpart ketolide” value (M. tuberculosis H37Rv [3]) is listed as 16 fold, the MIC (M. tuberculosis H37Rv [3]; [9]) is listed as 8 µM (≈ 5.98 µg/mL) and the “activity in mouse models” value (M. tuberculosis) is listed as “marginal and nil”.

Molecule `CC[C@H]1OC(=O)[C@H](C)[C@@H](O[C@H]2CC(C)(OC)[C@@H](O)[C@H](C)O2)[C@H](C)[C@@H](O[C@@H]2O[C@H](C)C[C@H](N(C)C)[C@H]2O)[C@](C)(OC)C[C@@H](C)C(=O)[C@H](C)[C@H]2N(NCc3cccn3-c3ccc(Cl)cc3)C(=O)O[C@]12C` (some centres unmarked) [E12′] has an MIC (M. tuberculosis H37Rv [3]; [8]) of 3.4 µM (≈ 3.32 µg/mL).

Work on `C#CCON=C1C(C)CC(C)(OC)C(OC2OC(C)CC(N(C)C)C2O)C(C)C(OC2CC(C)(OC)C(O)C(C)O2)C(C)C(=O)OC(CC)C(C)(O)C(O)C1C` (centres unmarked) [Compound 1GY17] yielded an MIC (M. tuberculosis H37Rv [3]; Table 5, read-out: MIC) of 13 µM (≈ 10.4 µg/mL).
